In paper PMC6389962 (Nature Communications, 2019):

Columns and labels:
[1] = target: T1, mouse GLP-1 receptor (Mus musculus, UniProt O35659); assay: cell-based; settings: for Emax: read-out: Top (best-fit value), variable slope four-parameter fit, unconstrained, 14: experiment 1
T1 sequence (O35659 22-463): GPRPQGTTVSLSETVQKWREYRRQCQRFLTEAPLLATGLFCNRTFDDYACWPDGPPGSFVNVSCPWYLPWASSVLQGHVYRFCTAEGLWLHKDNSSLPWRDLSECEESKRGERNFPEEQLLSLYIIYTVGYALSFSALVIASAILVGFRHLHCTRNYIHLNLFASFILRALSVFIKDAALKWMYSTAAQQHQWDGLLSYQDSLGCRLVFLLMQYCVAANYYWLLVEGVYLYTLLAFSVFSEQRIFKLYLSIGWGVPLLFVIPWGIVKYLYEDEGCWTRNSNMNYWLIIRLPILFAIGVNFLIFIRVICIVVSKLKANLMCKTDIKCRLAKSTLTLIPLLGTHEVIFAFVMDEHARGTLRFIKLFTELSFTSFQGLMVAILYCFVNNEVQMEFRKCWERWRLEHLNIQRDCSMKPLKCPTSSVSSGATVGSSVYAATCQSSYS

[2] = target: T1, mouse GLP-1 receptor; settings: for Potency (%), percentage of potency compare to GLP-1-G^2: cAMP production, from EC50

Row | SMILES | EC50 [1] | Emax [1] | LogEC50 (best-fit value) [2] | Potency (%), percentage of potency compare to GLP-1-G^2 [2]
1 | CC[C@H](C)[C@H](NC(=O)[C@H](Cc1ccccc1)NC(=O)[C@H](CCC(=O)O)NC(=O)[C@H](CCCCN)NC(=O)NC[C@H](C)NC(=O)NC[C@H](C)NC(=O)NC[C@H](C)NC(=O)[C@H](CCC(=O)O)NC(=O)[C@H](CC(C)C)NC(=O)[C@H](Cc1ccc(O)cc1)NC(=O)[C@H](CO)NC(=O)[C@H](CO)NC(=O)[C@@H](NC(=O)[C@H](CC(=O)O)NC(=O)[C@H](CO)NC(=O)[C@@H](NC(=O)[C@H](Cc1ccccc1)NC(=O)[C@@H](NC(=O)CNC(=O)[C@H](CCC(=O)O)NC(=O)CNC(=O)[C@@H](N)Cc1c[nH]cn1)[C@@H](C)O)[C@@H](C)O)C(C)C)C(=O)N[C@@H](C)C(=O)N[C@@H](Cc1c[nH]c2ccccc12)C(=O)N[C@@H](CC(C)C)C(=O)N[C@H](C(=O)N[C@@H](CCCCN)C(=O)NCC(=O)N[C@@H](CCCNC(=N)N)C(=O)NCC(N)=O)C(C)C [compound 12, GG2[A^uA^uA^u]^16-19] | 0.24 µM | 65% | -6.619 | 0.1%
2 | CC[C@H](C)[C@H](NC(=O)[C@H](Cc1ccccc1)NC(=O)[C@H](CCC(=O)O)NC(=O)NC[C@H](C)NC(=O)NC[C@H](C)NC(=O)NC[C@H](C)NC(=O)CNC(=O)[C@H](CCC(=O)O)NC(=O)[C@H](CC(C)C)NC(=O)[C@H](Cc1ccc(O)cc1)NC(=O)[C@H](CO)NC(=O)[C@H](CO)NC(=O)[C@@H](NC(=O)[C@H](CC(=O)O)NC(=O)[C@H](CO)NC(=O)[C@@H](NC(=O)[C@H](Cc1ccccc1)NC(=O)[C@@H](NC(=O)CNC(=O)[C@H](CCC(=O)O)NC(=O)CNC(=O)[C@@H](N)Cc1c[nH]cn1)[C@@H](C)O)[C@@H](C)O)C(C)C)C(=O)N[C@@H](C)C(=O)N[C@@H](Cc1c[nH]c2ccccc12)C(=O)N[C@@H](CC(C)C)C(=O)N[C@H](C(=O)N[C@@H](CCCCN)C(=O)NCC(=O)N[C@@H](CCCNC(=N)N)C(=O)NCC(N)=O)C(C)C [compound 13, GG2[A^uA^uA^u]^17-20] | 1.6 µM | 57.7% | -5.795 | –
3 | CC(C)C[C@H](NC(=O)[C@H](Cc1ccc(O)cc1)NC(=O)[C@H](CO)NC(=O)[C@H](CO)NC(=O)[C@@H](NC(=O)[C@H](CC(=O)O)NC(=O)[C@H](CO)NC(=O)[C@@H](NC(=O)[C@H](Cc1ccccc1)NC(=O)[C@@H](NC(=O)CNC(=O)[C@H](CCC(=O)O)NC(=O)CNC(=O)[C@@H](N)Cc1c[nH]cn1)[C@@H](C)O)[C@@H](C)O)C(C)C)C(=O)N[C@@H](CCC(=O)O)C(=O)NCC(=O)N[C@@H](CCC(N)=O)C(=O)N[C@@H](C)C(=O)N[C@@H](C)C(=O)N[C@@H](CCCCN)C(=O)N[C@@H](CCC(=O)O)C(=O)N[C@@H](Cc1ccccc1)C(=O)N[C@@H](C)CNC(=O)N[C@@H](C)CNC(=O)N[C@@H](C)CNC(=O)N[C@H](C(=O)N[C@@H](CCCCN)C(=O)NCC(=O)N[C@@H](CCCNC(=N)N)C(=O)NCC(N)=O)C(C)C [compound 17, GG2[A^uA^uA^u]^23-26] | 3.93 µM | 98.7% | -5.406 | 0.01%
4 | CC[C@H](C)[C@H](NC(=O)[C@H](Cc1ccccc1)NC(=O)[C@H](CCC(=O)O)NC(=O)[C@H](CCCCN)NC(=O)[C@H](C)NC(=O)[C@H](C)NC(=O)[C@H](CCC(N)=O)NC(=O)CNC(=O)[C@H](CCC(=O)O)NC(=O)[C@H](CC(C)C)NC(=O)[C@H](Cc1ccc(O)cc1)NC(=O)[C@H](CO)NC(=O)[C@H](CO)NC(=O)[C@@H](NC(=O)[C@H](CC(=O)O)NC(=O)[C@H](CO)NC(=O)[C@@H](NC(=O)[C@H](Cc1ccccc1)NC(=O)[C@@H](NC(=O)CNC(=O)[C@H](CCC(=O)O)NC(=O)CNC(=O)[C@@H](N)Cc1c[nH]cn1)[C@@H](C)O)[C@@H](C)O)C(C)C)C(=O)N[C@@H](C)CNC(=O)N[C@@H](C)CNC(=O)N[C@@H](C)CNC(=O)N[C@@H](CCCCN)C(=O)NCC(=O)N[C@@H](CCCNC(=N)N)C(=O)NCC(N)=O [compound 18, GG2[A^uA^uA^u]^24-27] | > 10 µM | 198% | – | < 0.01%
